Results as given in ChEMBL document CHEMBL1201862, “PubChem BioAssay data set” (2004).
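Interpolation was linear, between the two tested concentrations surrounding the appropriate level; five concentrations were tested over 48 hours in 96-well plates. GI50 marks 50% less growth.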 Calls of active or inactive are those of the source. Rule as the data show it: active = GI50 up to about 1.1 µM and inactive = higher.

What was measured:
Test in all cases: NCI anticancer screen, dose series, 48 h
[1] = tested on: 786-0
[2] = tested on: A498
[3] = tested on: A549
[4] = tested on: ACHN
[5] = tested on: BT-549
[6] = tested on: CAKI-1
[7] = tested on: CCRF-CEM
[8] = tested on: COLO 205
[9] = tested on: DU-145
[10] = tested on: EKVX
[11] = tested on: HCC 2998
[12] = tested on: HCT-116
[13] = tested on: HCT-15
[14] = tested on: HOP-62
[15] = tested on: HOP-92
[16] = tested on: HT-29
[17] = tested on: Hs-578T
[18] = tested on: IGROV-1
[19] = tested on: K562
[20] = tested on: KM12
[21] = tested on: LOX IMVI
[22] = tested on: MCF7
[23] = tested on: MDA-MB-231
[24] = tested on: MDA-MB-435
[25] = tested on: MDA-N
[26] = tested on: MOLT-4
[27] = tested on: Malme-3M
[28] = tested on: NCI-H226
[29] = tested on: NCI-H23
[30] = tested on: NCI-H460
[31] = tested on: NCI-H522
[32] = tested on: NCI/ADR-RES
[33] = tested on: OVCAR-4
[34] = tested on: OVCAR-5
[35] = tested on: OVCAR-8
[36] = tested on: PC-3
[37] = tested on: RPMI-8226
[38] = tested on: RXF 393
[39] = tested on: SF-268
[40] = tested on: SF-295
[41] = tested on: SF-539
[42] = tested on: SK-MEL-2
[43] = tested on: SK-MEL-5
[44] = tested on: SK-OV-3
[45] = tested on: SN12C
[46] = tested on: SNB-19
[47] = tested on: SNB-75
[48] = tested on: SR
[49] = tested on: SW-620
[50] = tested on: T47D
[51] = tested on: TK-10
[52] = tested on: U-251
[53] = tested on: UACC-257
[54] = tested on: UACC-62
[55] = tested on: UO-31
[56] = tested on: HL-60
[57] = tested on: M14
[58] = tested on: OVCAR-3
[59] = tested on: SK-MEL-28

Measured: GI50

O=c1[nH]c(=O)n(C2OC(CO)C(O)C2O)c2ncc(-c3ccc(-c4ccccc4)cc3)nc12 (configuration not stated)
> 20 µM: [13]
inactive: [1] > 20 µM | [2] > 20 µM | [3] > 20 µM | [4] > 20 µM | [5] > 20 µM | [6] > 20 µM | [7] > 20 µM | [8] > 20 µM | [9] > 20 µM | [10] > 20 µM | [11] > 20 µM | [12] > 20 µM | [14] > 20 µM | [15] > 20 µM | [16] > 20 µM | [17] > 20 µM | [18] > 20 µM | [19] > 20 µM | [20] > 20 µM | [21] > 20 µM | [22] > 20 µM | [23] > 20 µM | [24] > 20 µM | [25] > 20 µM | [26] > 20 µM | [27] > 20 µM | [28] > 20 µM | [29] > 20 µM | [30] > 20 µM | [31] > 20 µM | [32] > 20 µM | [33] > 20 µM | [34] > 20 µM | [35] > 20 µM | [36] > 20 µM | [37] > 20 µM | [38] > 20 µM | [39] > 20 µM | [40] > 20 µM | [41] > 20 µM | [42] > 20 µM | [43] > 20 µM | [44] > 20 µM | [45] > 20 µM | [46] > 20 µM | [47] > 20 µM | [48] > 20 µM | [49] > 20 µM | [50] > 20 µM | [51] > 20 µM | [52] > 20 µM | [53] > 20 µM | [54] > 20 µM | [55] > 20 µM

OCCN=C1c2ccccc2C2C(c3ccccc31)C1c3ccccc3C(=NCCO)c3ccccc3C21 (configuration not stated)
17.4 µM: [13]
inactive: [1] 28.2 µM | [3] 20.6 µM | [4] 23.6 µM | [5] 23.6 µM | [6] 16.3 µM | [7] 11.6 µM | [8] 15.6 µM | [9] 21.7 µM | [10] 35.9 µM | [11] 22.6 µM | [12] 15.5 µM | [56] 13.9 µM | [14] 18.1 µM | [16] 15.4 µM | [17] 12.6 µM | [18] 15.5 µM | [19] 12.6 µM | [20] 17.1 µM | [21] 22 µM | [57] 20.1 µM | [22] 20.3 µM | [23] 13.8 µM | [24] 18 µM | [25] 15.6 µM | [26] 8.91 µM | [27] 32.4 µM | [29] 44.7 µM | [30] 26.9 µM | [32] 22.2 µM | [58] 18.2 µM | [33] 18.8 µM | [34] 19.6 µM | [35] 26.9 µM | [36] 17.2 µM | [37] 13.6 µM | [38] 22.8 µM | [39] 23.2 µM | [40] 12.9 µM | [41] 18 µM | [59] 17.5 µM | [42] 16.4 µM | [43] 16.8 µM | [44] 22.2 µM | [45] 18.6 µM | [46] 10.7 µM | [47] 20.4 µM | [48] 9.48 µM | [49] 26.1 µM | [50] 21.6 µM | [51] 26.4 µM | [52] 20.2 µM | [53] 24.7 µM | [54] 15.3 µM | [55] 12.5 µM
active: [28] < 0.01 µM

N=C(N)N/N=C/c1ccc(O)c(C(=O)O)c1
inactive: [1] > 100 µM | [2] > 100 µM | [3] > 100 µM | [4] > 100 µM | [5] > 100 µM | [6] > 100 µM | [7] > 100 µM | [8] > 100 µM | [9] > 100 µM | [11] > 100 µM | [12] > 100 µM | [14] > 100 µM | [15] > 100 µM | [16] 32.3 µM | [17] > 100 µM | [18] > 100 µM | [19] > 100 µM | [20] > 100 µM | [21] > 100 µM | [57] > 100 µM | [22] > 100 µM | [23] > 100 µM | [24] > 100 µM | [25] > 100 µM | [26] > 100 µM | [27] 99.1 µM | [28] > 100 µM | [29] > 100 µM | [30] > 100 µM | [31] > 100 µM | [32] > 100 µM | [58] > 100 µM | [33] > 100 µM | [34] > 100 µM | [35] > 100 µM | [36] > 100 µM | [37] > 100 µM | [38] > 100 µM | [39] > 100 µM | [40] > 100 µM | [41] > 100 µM | [59] > 100 µM | [42] > 100 µM | [43] > 100 µM | [44] > 100 µM | [46] > 100 µM | [47] 3.22 µM | [48] > 100 µM | [49] > 100 µM | [50] > 100 µM | [51] > 100 µM | [52] > 100 µM | [53] > 100 µM | [54] > 100 µM | [55] > 100 µM
> 100 µM: [13]
